Laboratory results: patent US5093496A, “Spiro-isoquinoline-pyrrolidines and analogs thereof useful as aldose reductase inhibitors” (American Home Products Corporation, priority 1991, dated 1992)
Like-named read-outs stand apart in the source and are kept apart here.

What was measured:
aldose reductase = biological target: T1, aldose reductase (Bos taurus, UniProt P16116); test: in vitro aldose reductase inhibition (modified Hayman and Kinoshita procedure, enzyme from bovine lens); type: biochemical; details: for inhibition at 0.04 µM: 4 × 10^-8 M; for inhibition at 1 µM / inhibition at 0.1 µM: read-out: % inhibition In Vitro
T1 construct: preparation of the enzyme from bovine lens; from tissue; host or cells: bovine lens
Experimental: Only two minor reagent changes were made: (a) the rinsing mixture was an aqueous 5% (w/v) trichloroacetic acid solution and (b) the stock solution was prepared by dissolving 25 mg of dulcitol in 100 ml of an aqueous trichloroacetic acid solution. [N.B.: For each experiment the average value found in the tissue from rats fed the glucose diet was subtracted from the individual values found in the corresponding tissue in galactose-fed rats to obtain the amount of polyol accumulated.] […] In the present case the procedure of Hayman and Kinoshita was modified in that the final chromatography step was omitted in the preparation of the enzyme from bovine lens.

Galactitol Accumulation = test: lowering of galactitol (dulcitol) accumulation in tissues of galactosemic rats; type: in vivo, rat (Sprague-Dawley); details: four days, vs untreated galactosemic rats; for % Lowering Galactitol Accumulation In Vivo, D: diaphragm
Excerpt: The aldose reductase inhibiting property of the compounds of this invention and the utilization of the compounds in preventing, diminishing and alleviating diabetic complications are demonstrable in experiments using galactosemic rats, see Dvornik et al., Science, 182, 1146 (1973). Such experiments are exemplified hereinbelow after the listing of the following general comments pertaining to these experiments:
(a) Four or more groups of six male rats, 50-70 g, Sprague-Dawley strain, were used. The first group, the control group, was fed a mixture of laboratory chow (rodent Laboratory Chow, Purina) and glucose at 20% (w/w %) concentration. An untreated galactosemic group was fed a similar diet in which galactose was substituted for glucose. The third group was fed a diet prepared by mixing a given amount of the test compound with the galactose containing diet. The concentration of galactose in the diet of the treated groups was the same as that for the untreated galactosemic group.
(b) After four days, the animals were killed by euthanization. Both the lens and sciatic nerve were removed, weighed and stored frozen for polyol determination.
(c) The polyol determination was performed by a modification of the procedure of M. Kraml and L. Cosyns, Clin. Biochem., 2, 373 (1969). Only two minor reagent changes were made: (a) the rinsing mixture was an aqueous 5% (w/v) trichloroacetic acid solution and (b) the stock solution was prepared by dissolving 25 mg of dulcitol in 100 ml of an aqueous trichloroacetic acid solution. [N.B.: For each experiment the average value found in the tissue from rats fed the glucose diet was subtracted from the individual values found in the corresponding tissue in galactose-fed rats to obtain the amount of polyol accumulated.] The aldose reductase inhibiting effects of the compounds of formula (I) were also tested by employing an in vitro testing procedure similar to that described by S. Hayman and J. H. Kinoshita, J. Biol. Chem., 240, 877 (1965). In the present case the procedure of Hayman and Kinoshita was modified in that the final chromatography step was omitted in the preparation of the enzyme from bovine lens.
The figures under L, N, and D represent the percentage decrease of dulcitol accumulation in the tissues of the lens, sciatic nerve, and diaphragm, respectively, for treated rats as compared to untreated rats.

Row | inhibition at 0.1 µM (aldose reductase; 10^-7 M) | SMILES | inhibition at 0.04 µM (aldose reductase) | inhibition at 1 µM (aldose reductase; 10^-6 M) | inhibition at 0.1 µM (aldose reductase) | % Lowering Galactitol Accumulation In Vivo, D (Galactitol Accumulation; 1.0 mg/kg/day in diet) | inhibition at 1 µM (aldose reductase) | % Lowering Galactitol Accumulation In Vivo, D (Galactitol Accumulation; 4.6 mg/kg/day in diet) | % Lowering Galactitol Accumulation In Vivo, D (Galactitol Accumulation; 0.5 mg/kg/day in diet) | % Lowering Galactitol Accumulation In Vivo, D (Galactitol Accumulation; 1.1 mg/kg/day in diet) | % Lowering Galactitol Accumulation In Vivo, L (Galactitol Accumulation; lens, 1.1 mg/kg/day in diet)
1 | – | O=C1CC2(C(=O)N1)C(=O)N(Cc1nc3cc(C(F)(F)F)ccc3s1)C(=O)c1ccc(F)cc12 (centres unmarked) [R^1=F, R^3=CF3, 6-Fluoro-2-[[5-(trifluoromethyl)-2-benzothiazolyl]methyl]spiro-[isoquinoline-4(1H),3'-pyrrolidine]-1,2',3,5'(2H)-tetrone] | 92% | 95% | 94% | 85% | – | – | – | – | –
2 | – | O=C1CC2(C(=O)N1)C(=O)N(Cc1nc3ccccc3s1)C(=O)c1ccc(F)cc12 (centres unmarked) [R^1=F, R^3=H, 2-(2-Benzothiazolylmethyl)-6-fluorospiro[isoquinoline-4(1H),3'-pyrrolidine]-1,2',3,5'(2H)-tetrone] | 91% | – | 94% | – | 96% | 93% | – | – | –
3 | – | O=C1CC2(C(=O)N1)C(=O)N(Cc1nc3cc(C(F)(F)F)ccc3s1)C(=O)c1ccccc12 (centres unmarked) [R^1=H, R^3=CF3, 2-[[5-(Trifluoromethyl)-2-benzothiazolyl]methyl]spiro[isoquinoline-4-(1H),3'-pyrrolidine]-1,2',3,5'(2H)-tetrone] | 90% | 95% | 93% | – | – | – | 94% | 89% | 22%
4 | 92% | O=C1CC2(C(=O)N1)C(=O)N(Cc1nc3ccccc3s1)C(=O)c1ccccc12 (centres unmarked) [R^1=H, R^3=H, 2-(2-Benzothiazolylmethyl)spiro[isoquinoline-4(1H),3'-pyrrolidine)-1,2',3,5'(2H)-tetrone] | 81% | 97% | – | – | – | – | – | – | –
